Results from ChEMBL document CHEMBL1201862, “PubChem BioAssay data set” (2004).
Structures can show the parent of a compound that is named as a salt.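 Following 48 hours of exposure in 96-well plates, responses at five concentrations were used to interpolate endpoints linearly. Abbreviation: GI50, concentration required for 50% inhibition of growth.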 Active and inactive are the calls of the source. Rule as the data show it: active = GI50 up to about 1.1 µM and inactive = higher.

Experiments:
Assay in all cases: NCI-60 cell line screen, 48 h
786-0 = tested on: 786-0
ACHN = tested on: ACHN
DMS-273 = tested on: DMS-273
HCT-116 = tested on: HCT-116
HL-60 = tested on: HL-60
HOP-62 = tested on: HOP-62
K562 = tested on: K562
KM12 = tested on: KM12
M14 = tested on: M14
MOLT-4 = tested on: MOLT-4
NCI-H226 = tested on: NCI-H226
OVCAR-5 = tested on: OVCAR-5
OVCAR-8 = tested on: OVCAR-8
SF-295 = tested on: SF-295
SF-539 = tested on: SF-539
TK-10 = tested on: TK-10
BT-549 = tested on: BT-549
MDA-MB-435 = tested on: MDA-MB-435
MDA-N = tested on: MDA-N
T47D = tested on: T47D

SMILES	GI50 (786-0)	GI50 (ACHN)	GI50 (DMS-273)	GI50 (HCT-116)	GI50 (HL-60)	GI50 (HOP-62)	GI50 (K562)	GI50 (KM12)	GI50 (M14)	GI50 (MOLT-4)	GI50 (NCI-H226)	GI50 (OVCAR-5)	GI50 (OVCAR-8)	GI50 (SF-295)	GI50 (SF-539)	GI50 (TK-10)	GI50 (BT-549)	GI50 (MDA-MB-435)	GI50 (MDA-N)	GI50 (T47D)
C=C(CN(C)C)C(=O)c1ccccc1Cl	19.9 µM (inactive)	17.6 µM (inactive)	19.6 µM (inactive)	18.4 µM (inactive)	5.5 µM (inactive)	> 100 µM (inactive)	13.1 µM (inactive)	> 47.8 µM (inactive)	19 µM (inactive)	6.68 µM (inactive)	> 67.3 µM (inactive)	> 43 µM (inactive)	18.3 µM (inactive)	> 65.3 µM (inactive)	24.4 µM (inactive)	21.7 µM (inactive)				
Cc1ccc(/C=N/NS(=O)(=O)c2ccccc2)cc1C	> 100 µM (inactive)	> 100 µM (inactive)	> 100 µM (inactive)	76 µM (inactive)	> 100 µM (inactive)	> 100 µM (inactive)	> 100 µM (inactive)	> 100 µM (inactive)	> 100 µM (inactive)	> 100 µM (inactive)	> 100 µM (inactive)	> 100 µM (inactive)	> 100 µM (inactive)	45.7 µM (inactive)	> 100 µM (inactive)	> 100 µM (inactive)				
O=C1C(CN2CCOCC2)CCCC1CN1CCOCC1 (centres undefined)	1.16 µM (inactive)	1.88 µM (inactive)	8.11 µM (inactive)	1.29 µM (inactive)	0.787 µM (active)	> 100 µM (inactive)	0.48 µM (active)	5.98 µM (inactive)	3.44 µM (inactive)	0.861 µM (active)	20.6 µM (inactive)	18.6 µM (inactive)	3.41 µM (inactive)	33.4 µM (inactive)	3.92 µM (inactive)	3.94 µM (inactive)	1.96 µM (inactive)	14.4 µM (inactive)	4.37 µM (inactive)	1.13 µM (inactive)
N[C@@H](Cc1ccc(N(CCCl)CCCl)cc1)C(=O)O [MELPHALAN HYDROCHLORIDE]	17.4 µM (inactive)	9.57 µM (inactive)	9.71 µM (inactive)	42.1 µM (inactive)	2.51 µM (inactive)	15.4 µM (inactive)	50.7 µM (inactive)	71.1 µM (inactive)	24.5 µM (inactive)	2.79 µM (inactive)	49.9 µM (inactive)	47.4 µM (inactive)	35.2 µM (inactive)	20 µM (inactive)	16.6 µM (inactive)	67.1 µM (inactive)	38 µM (inactive)	41.9 µM (inactive)	46.3 µM (inactive)	14.1 µM (inactive)
CCOC(=O)C12CN(C34CC5CC(CC(C5)C3)C4)CC(C(=O)OCC)(C1=O)C(c1ccccc1)OC2c1ccccc1 (centres undefined)	> 100 µM (inactive)	> 100 µM (inactive)	> 100 µM (inactive)	> 10 µM (inactive)	9.25 µM (inactive)	> 100 µM (inactive)	31.4 µM (inactive)	> 100 µM (inactive)	> 100 µM (inactive)	35.6 µM (inactive)	89.7 µM (inactive)	> 100 µM (inactive)	> 100 µM (inactive)	> 100 µM (inactive)	> 10 µM (inactive)	> 100 µM (inactive)				
CC(=O)OC1CC[C@@]2(C)C(CC[C@]3(C)C2CC=C2[C@@H]4C(C)[C@H](C)CCC4(C)CCC23C)[C@@]1(C)C(=O)O (some centres undefined)	23.2 µM (inactive)	18.2 µM (inactive)	21.2 µM (inactive)	16.4 µM (inactive)	27.4 µM (inactive)	20.7 µM (inactive)	25.9 µM (inactive)	21.2 µM (inactive)	22.3 µM (inactive)	26.8 µM (inactive)	22.1 µM (inactive)	18 µM (inactive)	23.6 µM (inactive)	17.6 µM (inactive)	21.4 µM (inactive)	18.6 µM (inactive)	25 µM (inactive)	19.8 µM (inactive)	20.9 µM (inactive)	17.9 µM (inactive)
C[C@H](O)CCC(=O)c1ccoc1	> 100 µM (inactive)	> 100 µM (inactive)	> 100 µM (inactive)	> 100 µM (inactive)	> 100 µM (inactive)	> 100 µM (inactive)	> 100 µM (inactive)	> 100 µM (inactive)	> 100 µM (inactive)	> 100 µM (inactive)	> 100 µM (inactive)	> 100 µM (inactive)	> 100 µM (inactive)	> 100 µM (inactive)	> 100 µM (inactive)	> 100 µM (inactive)				
CC(=O)OCCOCBr	> 100 µM (inactive)	> 100 µM (inactive)	> 100 µM (inactive)	> 100 µM (inactive)	> 100 µM (inactive)	> 100 µM (inactive)	> 100 µM (inactive)	> 100 µM (inactive)	> 100 µM (inactive)		> 100 µM (inactive)	> 100 µM (inactive)	> 100 µM (inactive)	> 100 µM (inactive)	> 100 µM (inactive)	> 100 µM (inactive)				
